These are literature values, as cited in patent publication US20090148509A1, “ENCAPSULATION AND DEAGGREGATION OF POLYENE ANTIBIOTICS USING POLY(ETHYLENE GLYCOL)-PHOSPHOLIPID MICELLES” (WISCONSIN ALUMNI RESEARCH FOUNDATION, priority 2002, published 2009).

The conditions of series [1]: surfactant:AmB.

For sodium deoxycholate, the “molar ratio required to efficiently deaggregate AmB” value in series [1] is on record as “greater than 40”.
As for `C[C@@H]1[C@H](O)[C@@H](C)/C=C/C=C/C=C/C=C/C=C/C=C/C=C/[C@H](O[C@@H]2O[C@H](C)[C@@H](O)[C@H](N)[C@@H]2O)C[C@@H]2O[C@](O)(C[C@@H](O)C[C@@H](O)[C@H](O)CC[C@@H](O)C[C@@H](O)CC(=O)O[C@H]1C)C[C@H](O)[C@H]2C(=O)O` [AmB, Amphotericin B], the “critical aggregation concentration of AmB in water” value is “about 1.0 μg/ml”.
